Target: Vitamin K-dependent protein C (Homo sapiens) (UniProt P04070)
Assay: Inhibitory activity against human serine protease (act protein C )(7.5*10e6*)

Vitamin K-dependent protein C (Homo sapiens), sequence (P04070 whole entry, looked up): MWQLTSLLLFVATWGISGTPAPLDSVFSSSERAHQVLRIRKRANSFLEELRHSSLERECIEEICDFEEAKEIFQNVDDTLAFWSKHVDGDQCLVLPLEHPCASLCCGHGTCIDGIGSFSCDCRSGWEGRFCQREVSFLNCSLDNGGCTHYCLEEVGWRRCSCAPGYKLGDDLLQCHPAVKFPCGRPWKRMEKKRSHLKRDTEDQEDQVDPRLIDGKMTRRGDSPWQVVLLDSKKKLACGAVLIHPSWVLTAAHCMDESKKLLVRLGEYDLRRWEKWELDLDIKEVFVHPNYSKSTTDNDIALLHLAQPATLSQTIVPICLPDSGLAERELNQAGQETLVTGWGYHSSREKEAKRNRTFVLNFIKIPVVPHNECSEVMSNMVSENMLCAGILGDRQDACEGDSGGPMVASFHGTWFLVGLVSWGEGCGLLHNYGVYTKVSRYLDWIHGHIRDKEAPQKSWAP

Ki: 417 µM
SMILES: NC1CCC(CNC(=O)[C@@H]2CCCN2C(=O)[C@H](N)C(C2CCCCC2)C2CCCCC2)CC1 (stereo partly specified) [1-(2-Amino-3,3-dicyclohexyl-propionyl)-pyrrolidine-2-carboxylic acid (4-amino-cyclohexylmethyl)-amide]
